From US6730665B1, “Treatment of bone cancer” (Mayo Foundation for Medical Education and Research, priority 1999, dated 2004)

Legend:
female Fisher 344 rats [1] = assay: Cortical bone histomorphometry of rat tibia after oral 2ME; type: in vivo; settings: 100 mg/kg/day oral gavage 13 days, mean ± SE
Procedure: (§1) All studies were approved by the Institutional Animal Care and Use Committee of the Mayo Clinic, Rochester, Minn. Rats were kept in plastic cages (3 per cage) under standard conditions of a 12 hr dark and 12 hr light cycle with food (Purina Laboratory rodent diet 5001, Ralston-Purina, St. Louis, Mo.) and water ad libitum. Rooms were maintained at a temperature of 24° C.
(§2) Fluorochromes were given […] tail vein.
(§3) Bone histomorphometry Histomorphometric measurements were performed with the OsteoMeasure Analysis System (OsteoMetrics, Atlanta, Ga.), which consisted of a Pentium 1133 computer coupled to a photomicroscope and image analysis system. […] The region of interest was traced, and the line lengths and area bounded by lines were calculated automatically.
Cortical bone measurements Ground transverse sections, cut at a site just proximal to the tibia-fibula synostosis, were prepared for histomorphometric analysis of cortical bone as described by Merriam, G. R. et al., Steroids, 1980, 136: 1-11. The following values were obtained as described by Turner, R. T. et al., Endocrinology, 1998, 139:3712-3720: 1) cross-sectional bone area; 2) medullary area: 3) cortical bone area: 4) periosteal perimeter; 5) endocortical perimeter; 6) periosteal bone formation rate, calculated as the area of bone between the declomycin label given at the start of the experiment and periosteal perimeter divided by the post-labeling period of 11 days; 7) periosteal mineral apposition rate, an index of osteoblast activity which is calculated as the periosteal bone formation rate divided by the label perimeter; and 8) periosteal label perimeter, an index of osteoblast number, defined as the periosteal perimeter labeled with calcein.
(§4) Statistical Analvses All values are expressed as mean±standard error (SE). Significant differences between groups were determined by Fisher's Protected Least Significant Difference post hoc test for multiple group comparisons following detection of significance by 1-way ANOVA. Significance was considered at p values ≦0.05.

MG63 cells = assay: Apoptotic gene mRNA levels by RNase protection assay; type: cell-based, human; settings: 10 μM
Procedure: The changes in expression of the genes that are known to antagonize or promote apoptosis were analyzed by this method. MG63 cells in triplicate cultures were treated with 10 μM 2ME. Cells were harvested at the end of 12, 24, 48 and 72 h of treatment and used for RNA isolation. Total RNA isolated from cells was analyzed by RNase protection assay using apoptosis template set for multiprobes (Pharmingen; San Diego, Calif.). Quantitation of protected RNA fragments was performed by Phosphor Imager analyses and normalized to L32 or GAP levels. The mRNA for the proapoptotic gene bak and bax were increased by 2ME treatment in MG63 cells (FIG. 7). The increase was significant within 12 h of treatment and reached a maximum (2 fold for bak; 2.5 fold for bax) at 48 h, at which time cell death by apoptosis was detected by in situ TUNEL assay.

female Fisher 344 rats [2] = assay: Cancellous bone histomorphometry of rat proximal tibial metaphysis after oral 2ME; type: in vivo; settings: 100 mg/kg/day oral gavage 13 days, mean ± SE
Procedure: as §1, §2, §3
Cancellous bone measurements on stained sections The proximal tibial metaphysis was dehydrated in a series of increasing concentrations of ethanol, embedded without demineralization in a mixture of methyimethacrylate-2-hydroxyethyl and methacrylate (12.5:1) to retain the fluorochrome labels, and sectioned at a thickness of 5 μm (Reichert-Jung Model 2065 Microtome, Heidelberg Germany). Sections were stained with toluidine blue. A standard sampling site was established in the secondary spongiosa of the metaphysis, 1 mm distal to the calcein label that was deposited at the metaphyseal growth plate, its center perpendicular to the long axis of each bone and extending 2.0 mm distal to the starting point. This method adjusts for longitudinal growth such that only the portion of the secondary spongiosa present throughout the experiment was sampled. A total metaphyseal area of 2.88 mm^2 was sampled for each section.
Bone volume measurements Cancellous bone area and cancellous perimeter were determined as described by Turner, R. T. et al., 1998, supra. The following indices of trabecular architecture were calculated: 1) trabecular thickness; 2) trabecular number; and 3) trabecular separation.
Bone formation measurements and calculations Bone formation rate (%/day, tissue area referent) was calculated as the double-labeled perimeter (μn) multiplied by the mineral apposition rate (μm/day) and divided by the tissue area (mm^2); bone formation rate (perimeter referent) was calculated as the double-labeled perimeter (μm) multiplied by the mineral apposition rate (μm/day) and divided by the total bone perimeter (mm); mineral apposition rate was calculated as the mean distance between the declomycin label and the calcein label by the time interval (11 days); and double-labeled perimeter (tissue are referent) was measured as the length with declomycin and calcein labels (mm/mm^2 of cancellous tissue area).
as §4

COc1cc2c(cc1O)CC[C@@H]1[C@@H]2CC[C@]2(C)[C@@H](O)CC[C@@H]12 [2ME, 2-methoxyestradiol]
Bone Formation Rate (female Fisher 344 rats [1]; cortical (periosteal) bone): 5.32 ± 0.47 mm^2 × 10^−3/day
Mineral Apposition Rate (female Fisher 344 rats [1]; cortical (periosteal) bone): 1.34 ± 0.06 μm/day
Cortical Area (female Fisher 344 rats [1]; cortical bone, tibia): 2.28 ± 0.03
Cross-sectional area (female Fisher 344 rats [1]; cortical bone, tibia): 2.98 ± 0.04 mm^2
Medullary Area (female Fisher 344 rats [1]; cortical bone, tibia): 0.70 ± 0.02 mm^2
maximum increase of bak mRNA (MG63 cells; 48 h): 2 fold
maximum increase of bax mRNA (MG63 cells; 48 h): 2.5 fold
mRNA levels for bak and bax (in words) (MG63 cells; 72 h): returned to basal level
BFR/BS (female Fisher 344 rats [2]): 0.35 ± 0.03 %/day
BV/TV (female Fisher 344 rats [2]): 17.7 ± 1.9%
Mineral Apposition Rate (female Fisher 344 rats [2]): 172 ± 0.05 μm/day
Tb.Sp (female Fisher 344 rats [2]): 297 ± 46 μm
Tb.Th (female Fisher 344 rats [2]): 57 ± 2 μm
